Data published in patent US20060147538A1, “Nanocomposite drug delivery composition” (THE QUEEN'S UNIVERSITY OF BELFAST, priority 2003, published 2006).

How the values were obtained:
[1] = Drug release studies, polymer-drug-clay extrudate (Example 3); type: physicochemical
Text: PEGIB is PEG+ibuprofen, PEGIBM is PEG+ibuprofen+montmorillonite (natural clay) and PEGIBS is PEG+ibuprofen+synthetic clay. In one embodiment the extrudate is rod shaped with a diameter of 1 mm.
In one embodiment the extrudate is rod shaped with a diameter of 1 mm.

[2] = Drug release studies, polymer-drug-clay disks (Example 3); type: physicochemical
Text: In a one embodiment the discs were 18 mm in diameter and 1 mm thick. Different sizes or shapes of discs will influence the release rate of the drug.

Time 50% release ([1]; PEG-Ibuprofen-Clay Extrudate) [min] | Time 80% release ([1]; PEG-Ibuprofen-Clay Extrudate) [min] | Time 100% release ([1]; PEG-Ibuprofen-Clay Extrudate) [min] | Time 50% release ([2]; PEG-Ibuprofen-Clay Disks) [min] | Time 80% release ([2]; PEG-Ibuprofen-Clay Disks) [min] | Time 100% release ([2]; PEG-Ibuprofen-Clay Disks) [min] | Time 50% release ([1]; PCL-Paracetamol-Clay Extrudate) [min] | Time 80% release ([1]; PCL-Paracetamol-Clay Extrudate) [min] | Time 100% release ([1]; PCL-Paracetamol-Clay Extrudate) [min] | Time 50% release ([1]; PEG-Paracetamol-Clay Extrudate) [min] | Time 80% release ([1]; PEG-Paracetamol-Clay Extrudate) [min] | Time 100% release ([1]; PEG-Paracetamol-Clay Extrudate) [min] | Time 50% release ([2]; PCL-Paracetamol-Clay Disks) [min] | Time 80% release ([2]; PCL-Paracetamol-Clay Disks) [min] | Time 100% release ([2]; PCL-Paracetamol-Clay Disks) [min] | Time 50% release ([2]; PEG-Paracetamol-Clay Disks) [min] | Time 80% release ([2]; PEG-Paracetamol-Clay Disks) [min] | Time 100% release ([2]; PEG-Paracetamol-Clay Disks) [min] | Structure (SMILES)
<5 | <5 | 10 | <5 | <5 | 10 | – | – | – | – | – | – | – | – | – | – | – | – | CC(C)Cc1ccc(C(C)C(=O)O)cc1 (stereo not drawn) [Ibuprofen Powder, ibuprofen]
– | – | – | – | – | – | <5 | <5 | <5 | <5 | <5 | <5 | <5 | <5 | <5 | <5 | <5 | <5 | CC(=O)Nc1ccc(O)cc1 [Paracetamol powder, paracetamol]
